In patent US4201781A, “Substituted 7[s-oxopyrido[2,3-d]pyrimidine carboxamido acetamido]cephalosporins” (Dainippon Pharmaceutical Co., Ltd., priority 1977, dated 1980):
In brackets after ≈: the same amount, converted by molar mass. Where two headings read alike, the source gives them in different places.

Columns and labels:
[1] = system: Staphylococcus aureus No. 50774; assay: In vivo efficacy against systemic infection in mice; set-up: species or system male mice (ddY); conditions: read-out: ED50 (median effective dose)
Description: (§1) Compounds 1,2, A and B were each dissolved in deionized water to prepare injectable solutions having various concentrations.
(§2) Each of the injectable solutions was administered to mice infected with each of the bacteria described below under the conditions described below, and the median effective doses (ED50) obtained are shown in Table II. […]
(§3) male mice (ddY) weighing about 20 g
(1) Staphylococcus aureus No. 50774; Intravenous infection with 50 to 100 LD50 (about 5×10^8 cells/mouse) of a bacterial suspension in saline. twice, about 5 minutes and 6 hours after infection. […]
(§4) Note; The numerals in the table show ED50 (mg/kg). ED50 values
(§5) were calculated in accordance with the BehrensKaerber method (Arch. Exp.

[2] = system: Pseudomonas aeruginosa No. 12; assay: In vitro antibacterial activity (MIC); type: cell-based
From the text: (§6) The numerals in the table show minimum inhibitory concentrations (MIC)

[3] = system: Staphylococcus aureus 209P JC-1; assay: In vitro antibacterial activity (MIC); type: cell-based; conditions: read-out: minimum inhibitory concentration (MIC)
From the text: as §6

[4] = system: Enterobacter cloacae P-2540; assay: In vitro antibacterial activity (MIC); type: cell-based
From the text: as §6

[5] = system: Escherichia coli NIHJ JC-2; assay: In vitro antibacterial activity (MIC); type: cell-based
From the text: as §6

[6] = system: Corynebacterium pyrogenes C-21; assay: In vitro antibacterial activity (MIC); type: cell-based
From the text: as §6

[7] = system: Streptococcus pyrogenes 65A; assay: In vitro antibacterial activity (MIC); type: cell-based; conditions: read-out: minimum inhibitory concentration (MIC)
From the text: as §6

[8] = system: Serratia marcescens IFO 3736; assay: In vitro antibacterial activity (MIC); type: cell-based
From the text: as §6

[9] = system: Proteus morganii Kono; assay: In vitro antibacterial activity (MIC); type: cell-based; conditions: Morganella morganii, read-out: minimum inhibitory concentration (MIC)
From the text: as §6

[10] = system: Pseudomonas aeruginosa Tsuchijima; assay: In vitro antibacterial activity (MIC); type: cell-based; conditions: read-out: minimum inhibitory concentration (MIC)
From the text: as §6

[11] = system: Escherichia coli P-5101; assay: In vitro antibacterial activity (MIC); type: cell-based
From the text: as §6

[12] = system: Staphylococcus aureus No. 50774; assay: In vitro antibacterial activity (MIC); type: cell-based
From the text: as §6

[13] = system: Klebsiella pneumoniae No. 13; assay: In vitro antibacterial activity (MIC); type: cell-based
From the text: as §6

[14] = system: Proteus mirabilis P-2381; assay: In vitro antibacterial activity (MIC); type: cell-based
From the text: as §6

[15] = system: Salmonella typhimurium S-9; assay: In vitro antibacterial activity (MIC); type: cell-based; conditions: Salmonella enterica, read-out: minimum inhibitory concentration (MIC)
From the text: as §6

[16] = system: Salmonella enteritidis No. 1891; assay: In vitro antibacterial activity (MIC); type: cell-based; conditions: Salmonella enterica, read-out: minimum inhibitory concentration (MIC)
From the text: as §6

[17] = system: Gram-negative and Gram-positive bacteria; assay: Antibacterial activity (general statement)
[18] = system: Escherichia coli P-5101; assay: In vivo efficacy against systemic infection in mice; set-up: species or system male mice (ddY); conditions: read-out: ED50 (median effective dose)
Description: as §1
Each of the injectable solutions was administered to mice infected with each of the bacteria described below under the conditions described below, and the median effective doses (ED50) obtained are shown in Table II.
as §3
(2) Escherichia coli P-5101; Intraperitoneal infection with 50 to 100 LD50 (about 9×10^6 cells/mouse) of a bacterial suspension in trypto-soy broth with 4% mucin.
twice, about 5 minutes and 6 hours after infection.
as §4, §5

[19] = Solubility in water; type: physicochemical; conditions: for solubility: deionized water at 25° C.; for Solubility in water (in words): water / deionized water / aqueous medium
Description: |Solubility in deionized water at 25° C.

[20] = system: Pseudomonas aeruginosa No. 12; assay: In vivo efficacy against systemic infection in mice; set-up: species or system male mice (ddY); conditions: read-out: ED50 (median effective dose)
Description: as §1, §2, §3
(3) Pseudomonas aeruginosa No. 12; Intraperitoneal infection with 50 to 100 LD50 (about 5×10^3 cells/mouse) of a bacterial suspension in trypto-soy broth with 4% mucin. twice, about 5 minutes and 6 hours after infection. […]
as §4, §5

[21] = system: Escherichia coli P-140a; assay: In vitro antibacterial activity (MIC); type: cell-based; conditions: for MIC: Escherichia coli, read-out: minimum inhibitory concentration (MIC)
From the text: as §6
(§7) *Clinically isolated Cephalexinresistant strain.

[22] = system: Shigella flexneri 2a; assay: In vitro antibacterial activity (MIC); type: cell-based; conditions: read-out: minimum inhibitory concentration (MIC)
From the text: as §6, §7

[23] = system: Shigella flexneri 4a P-330; assay: In vitro antibacterial activity (MIC); type: cell-based
From the text: as §6, §7

[24] = Acute toxicity in mice; conditions: mouse, in vivo, read-out: LD50 (median lethal dose)
Description: Injectable solutions containing compounds 1, 2 and compound A in various concentrations were administered to male mice (ddY) (4 to 8 in each group) in a dose of 0.1 ml per 10 g of body weight. The number of dead mice was counted after a lapse of 7 days, and the value of median lethal dose (LD50, mg/kg) was calculated.
Note: The LD50 values were calculated in accordance with the […]

[25] = Pseudomonas aeruginosa, NO.12, read-out: minimum inhibitory concentration (MIC)
[26] = Enterobacter cloacae, P2540, read-out: minimum inhibitory concentration (MIC)
[27] = Escherichia coli, NIHJJC2, read-out: minimum inhibitory concentration (MIC)
[28] = Staphylococcus aureus, NO.50774, read-out: minimum inhibitory concentration (MIC)
[29] = Proteus mirabilis, P2381, read-out: minimum inhibitory concentration (MIC)
[30] = NO.50774, 336 h, mice, sc, twice about 5 minutes and 6 hours after intravenous infection, observation 14 days
[31] = Pseudomonas aeruginosa No. 12, in vitro, read-out: minimum inhibitory concentration (MIC)
[32] = Staphylococcus aureus 209P JC-1, in vitro
[33] = P2540, Enterobacter cloacae P-2540, in vitro, read-out: minimum inhibitory concentration (MIC)
[34] = NIHJJC2, Escherichia coli NIHJ JC-2, in vitro, read-out: minimum inhibitory concentration (MIC)
[35] = C21, Corynebacterium pyrogenes C-21, in vitro, read-out: minimum inhibitory concentration (MIC)
[36] = Streptococcus pyrogenes 65A, in vitro
[37] = IFO3736, Serratia marcescens IFO 3736, in vitro, read-out: minimum inhibitory concentration (MIC)
[38] = Proteus morganii Kono, in vitro
[39] = P5101, Escherichia coli P-5101, in vitro, read-out: minimum inhibitory concentration (MIC)
[40] = Staphylococcus aureus No. 50774, in vitro, read-out: minimum inhibitory concentration (MIC)
[41] = Klebsiella pneumoniae No. 13, in vitro, read-out: minimum inhibitory concentration (MIC)
[42] = P2381, Proteus mirabilis P-2381, in vitro, read-out: minimum inhibitory concentration (MIC)
[43] = Salmonella enteritidis No. 1891, in vitro
[44] = P5101, 168 h, mice, sc, twice about 5 minutes and 6 hours after intraperitoneal infection, observation 7 days
[45] = NO.12, 168 h, mice, po, twice about 5 minutes and 6 hours after intraperitoneal infection, observation 7 days
[46] = NO.12, 168 h, mice, sc, twice about 5 minutes and 6 hours after intraperitoneal infection, observation 7 days
[47] = Shigella flexneri 2a, clinically isolated Cephalexin-resistant strain, in vitro
[48] = 4AP330, Shigella flexneri 4a P-330, clinically isolated Cephalexin-resistant strain, in vitro, read-out: minimum inhibitory concentration (MIC)

SMILES | MIC [2, 25] [µg/mL] | MIC ([3]; Staphylococcus aureus, 209P) [µg/mL] | MIC [4, 26] [µg/mL] | MIC [5, 27] [µg/mL] | MIC ([10]; Pseudomonas aeruginosa) [µg/mL] | MIC ([15]; TYPHIMURIUM) [µg/mL] | solubility [19] [mg/mL] | MIC [21] [µg/mL] | ED50 [1, 30] [mg/kg] | MIC [6, 35] [µg/mL] | MIC [7, 36] [µg/mL] | MIC [8, 37] [µg/mL] | MIC [11, 39] [µg/mL] | MIC [13, 41] [µg/mL] | MIC [16, 43] [µg/mL] | ED50 [18, 44] [mg/kg] | ED50 [20, 45] [mg/kg] | ED50 [20, 46] [mg/kg] | MIC [22, 47] [µg/mL] | MIC [23, 48] [µg/mL] | other results
Cn1nnnc1SCC1=C(C(=O)[O-])N2C(=O)C(NC(=O)[C@H](NC(=O)c3c[nH]c4nc(N5CCNCC5)ncc4c3=O)c3ccc(O)cc3)[C@H]2SC1.[Na+] (some centres unmarked) | 6.25 | 3.13 | 3.13 | 1.56 | 3.13 | 0.78 | ~0.5 | 1.56 |  |  |  |  |  |  |  |  |  |  |  |  | ED50 ([1]; NO.50774, sc, 336 h): ~7.8 mg/kg; MIC ([6]; Corynebacterium, C21, read-out: minimum inhibitory concentration (MIC)): 6.25 µg/mL; MIC ([7]; Streptococcus, 65A): 0.2 µg/mL; MIC ([8]; Serratia marcescens, IFO3736, read-out: minimum inhibitory concentration (MIC)): 6.25 µg/mL; MIC [9]: 25 µg/mL; MIC ([11]; Escherichia coli, P5101, read-out: minimum inhibitory concentration (MIC)): 0.78 µg/mL; MIC [12, 28]: 6.25 µg/mL; MIC ([13]; Klebsiella pneumoniae, NO.13, read-out: minimum inhibitory concentration (MIC)): 0.78 µg/mL; MIC [14, 29]: 12.5 µg/mL; MIC ([16]; ENTERITIDIS): 0.78 µg/mL; antibacterial activity (in words) [17]: superior antibacterial activity as the compound of the present invention; ED50 ([18]; P5101, sc, 168 h): ~0.4 mg/kg; Solubility in water (in words) [19]: extremely low solubility in water; ED50 ([20]; NO.12, po, 168 h): > 100 mg/kg; ED50 ([20]; NO.12, sc, 168 h): 4.8 mg/kg; MIC ([22]; Shigella flexneri, 2A): 0.78 µg/mL; MIC ([23]; Shigella flexneri, 4AP330, read-out: minimum inhibitory concentration (MIC)): 12.5 µg/mL; LD50 at 168 h ([24]; ip): ~1500 mg/kg
Cn1nnnc1SCC1=C(C(=O)O)N2C(=O)C(NC(=O)C(NC(=O)c3c[nH]c4nc(N5CCNCC5)ncc4c3=O)c3ccc(O)cc3)C2SC1 (centres unmarked) |  |  |  |  |  |  |  |  |  |  |  |  |  |  |  |  |  |  |  |  | Solubility in water (in words) [19]: soluble in deionized water in the same degree as compound A
Cc1nnc(SCC2=C(C(=O)O)N3C(=O)[C@@H](NC(=O)Cn4cnnn4)[C@H]3SC2)s1 [B, Cefazolin] |  |  |  |  |  |  | 400 (≈ 880000 µM) |  | 0.2 | 0.39 (≈ 0.858 µM) | 0.1 (≈ 0.22 µM) | > 200 | 1.56 (≈ 3.43 µM) | 3.13 (≈ 6.89 µM) | 1.56 (≈ 3.43 µM) | 5.3 | > 100 | > 800 | 3.13 (≈ 6.89 µM) | > 200 | MIC [2, 31]: > 200 µg/mL; MIC [3, 32]: 0.2 µg/mL (≈ 0.44 µM); MIC [4, 33]: > 200 µg/mL; MIC [5, 34]: 1.56 µg/mL (≈ 3.43 µM); MIC [9, 38]: > 200 µg/mL; MIC ([10]; Pseudomonas aeruginosa Tsuchijima, in vitro): > 200 µg/mL; MIC [12, 40]: 0.2 µg/mL (≈ 0.44 µM); MIC [14, 42]: 6.25 µg/mL (≈ 13.8 µM); MIC ([15]; Salmonella typhimurium S-9, in vitro): 1.56 µg/mL (≈ 3.43 µM); minimum inhibitory concentration (MIC) [21]: > 200 µg/mL
O=CN1CCN(c2ncc3c(=O)c(C(=O)N[C@@H](C(=O)N[C@@H]4C(=O)N5C(C(=O)O)=C(CSc6nnnn6CC(=O)O)CS[C@H]45)c4ccc(O)cc4)c[nH]c3n2)CC1 [Compound 1, Disodium 7-{D-α-[5,8-dihydro-2-(4-formyl-1-piperazinyl)-5-oxopyrido[2,3-d]pyrimidine-6-carboxamido]-α-p-hydroxyphenylacetamido}-3-(1-carboxylatomethyl-1,2,3,4-tetrazol-5-yl)thiomethyl-3-cephem-4-carboxylate] | 6.25 | 6.25 | 1.56 | 1.56 | 1.56 | 1.56 | ~400 | 1.56 | 13.1 | 3.13 | 0.2 | 3.13 | 0.78 | 1.56 | 0.78 | 1.5 | > 100 | 4.8 | 1.56 | 6.25 | MIC [9]: 1.56 µg/mL; MIC [12, 28]: 6.25 µg/mL; MIC [14, 42]: 0.78 µg/mL; LD50 at 168 h ([24]; iv): > 2000 mg/kg
O=CN1CCN(c2ncc3c(=O)c(C(=O)N[C@@H](C(=O)N[C@@H]4C(=O)N5C(C(=O)O)=C(CSc6nnc(CC(=O)O)s6)CS[C@H]45)c4ccc(O)cc4)c[nH]c3n2)CC1 [Compound 2, Disodium 7-{D-α-[5,8-dihydro-2-(4-formyl-1-piperazinyl)-5-oxopyrido[2,3-d]pyrimidine-6-carboxamido]-α-p-hydroxyphenylacetamido}-3-(5-carboxylatomethyl-1,3,4-thiadiazol-2-yl)thiomethyl-3-cephem-4-carboxylate] |  |  |  |  | 1.56 | 1.56 | ~150 | 1.56 | 11.5 | 3.13 | 0.1 | 6.25 | 0.78 | 1.56 | 0.78 | 2.5 | > 100 | 9.6 | 1.56 | 12.5 | MIC [2, 31]: 6.25 µg/mL; MIC [3, 32]: 6.25 µg/mL; MIC [4, 33]: 3.13 µg/mL; MIC [5, 34]: 0.78 µg/mL; MIC [9, 38]: 3.13 µg/mL; MIC [12, 40]: 6.25 µg/mL; MIC [14, 29]: 1.56 µg/mL; LD50 at 168 h ([24]; male mice (ddY), iv, after 7 days): > 2000 mg/kg
